Test results: US20120142601A1, “Modified Peptides and Uses Thereof” (MUSC Foundation for Research Development, priority 2009, published 2012)
Non-standard residues stand in square brackets, D forms with d. Residues, ends and D or L forms follow the SMILES beside them. No end group written: not given here. *: point of attachment. NMeR = CN[C@@H](CCCNC(=N)N)C(=O)O; Tle = CC(C)(C)[C@H](N)C(=O)O; X1 = C[C@@H](CCCCCN)C(=O)*

Experiments:
Catalepsy (bar test) = settings: 5 mg/kg
Method: (§1) In laboratory tests, catalepsy is characterized by the inability of an animal to correct its position after placement in an unnatural posture. Catalepsy tests may be greatly influenced by a number of variables. These include stress-induced inhibition of catalepsy caused by a new environment and the contribution of learned “pseudo-catalepsy” that may result upon repeated measures with the same animal. To circumvent these potential confounding factors, tests are performed on an animal only once in a quiet, controlled environment,
(§2) Finally, the bar test was utilized to measure catalepsy as a predictor of EPSEs in humans.

[1] = rat, in vivo
Method: as §1, §2

[2] = Hypothermia studies in the male Sprague-Dawley rat with various compounds; assay type: in vivo; settings: dose 1 mg/kg in saline
Method: Hypothermia studies in the male Sprague-Dawley rat were conducted using different compounds (dosed in saline) and the results are summarized in Table 1. For each compound, the maximum decrease in temperature (Δtemp) and the area under the curve for hypothermia versus a saline control (AUC) were measured.

NTR1 = NTR1 (Homo sapiens, UniProt P30989); settings: cited from earlier work
[3] = cited from earlier work
[4] = in vivo; cited from earlier work

NTR1, sequence (P30989 whole entry, species assumed): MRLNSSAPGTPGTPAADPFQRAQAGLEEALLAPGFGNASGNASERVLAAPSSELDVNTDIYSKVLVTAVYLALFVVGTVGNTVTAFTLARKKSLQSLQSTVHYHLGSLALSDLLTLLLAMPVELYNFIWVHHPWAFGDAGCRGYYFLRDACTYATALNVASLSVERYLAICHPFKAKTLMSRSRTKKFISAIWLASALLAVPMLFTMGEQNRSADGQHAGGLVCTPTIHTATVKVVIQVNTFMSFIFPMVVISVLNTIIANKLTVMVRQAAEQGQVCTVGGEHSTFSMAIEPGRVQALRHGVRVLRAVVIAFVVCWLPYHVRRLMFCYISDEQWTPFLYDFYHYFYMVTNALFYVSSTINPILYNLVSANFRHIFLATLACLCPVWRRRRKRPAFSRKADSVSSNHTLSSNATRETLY

CC(C)C[C@H](NC(=O)[C@@H](NC(=O)[C@H](Cc1ccc(O)cc1)NC(=O)[C@@H]1CCCN1C(=O)[C@H](CCCNC(=N)N)NC(=O)[C@@H](C)CCCCCN)C(C)(C)C)C(=O)O [ABS-201] (X1-RPY[Tle]L-OH)
catalepsy after peripheral administration (Catalepsy (bar test)): does not induce catalepsy

O=C(CCCN1CCC(O)(c2ccc(Cl)cc2)CC1)c1ccc(F)cc1 [Haloperidol]
duration of induced catalepsy [1]: greater than 30 sec

N-Me-L-Arg-L-Lys-L-Pro-L-Trp-t-Leu-L-Leu ([NMeR]KPW[Tle]L) [SEQ ID NO:2, reference compound]
AUC (area under the curve for hypothermia versus saline control) [2]: 700
Δtemp (maximum decrease in temperature) [2]: −4.2
loss of binding affinity at NTR1 (NTR1): 700 fold
central activity after oral administration ([3]; oral): not able to elicit central activity

N-Me-L-Arg-L-Lys-L-Pro-L-neoTyr-t-Leu-L-Leu [NT69L]
Kd (NTR1): 1.55 nM
hypothermic effect ([3]; 1 mg/kg injection, 90 min post-injection): −5.3 °C
effect of chronic administration on hypothermic effect ([3]; chronic administration): tolerance to its hypothermic effect
hypothermic response after oral administration ([3]; oral): only a slight hypothermic response
hyperactivity induced by cocaine and d-amphetamine [4]: attenuated hyperactivity
